# Measured values: patent US20260216194A1 (Cyrano Therapeutics, Inc., priority 2020, published 2026)
# Assays:
# Format in all cases: in vivo, human
# [1] = test system: patient who had loss of taste and smell from COVID-19; test: Side effects during intranasal theophylline treatment; conditions: 80 μg theophylline via two actuations from nasal spray device once per day, 3 months
# Description: (§1) Theophylline was administered to a patient who had loss of taste and smell from COVID-19. A formulation containing 80 μg of theophylline was administered via two actuations from nasal spray device once per day. Prior to the initial administration of theophylline, a baseline smell test was performed. A follow-up smell test was performed 3 months after the initial administration. […] The patient's detection threshold (DT) and recognition threshold (RT) for pyridine (Pyr), nitrobenzene (NO2B), thiophene (Thio) and amyl acetate (AA) was determined before treatment (pre) and after treatment (3M). In all four odorant tests, the patient's detection threshold and recognition threshold improved. An improvement of 1 bottle unit means that a patient could detect and/or recognize an odorant that was 10 times lower in concentration, when compared to baseline. For example, the recognition threshold (RT) of AA improved by 8 bottle units, also equivalent to an improvement of 8 orders of magnitude. In this case, the patient could detect a concentration of AA that was 108 lower in concentration. Bottle unit numbers that are 5 or lower are considered to be in the range of normal.
# [2] = test system: patient diagnosed or previously diagnosed with COVID-19 and having at least partial smell or taste loss; test: Example 1: intranasal theophylline formulation in a patient with smell or taste loss associated with COVID-19
# Description: A patient diagnosed or previously diagnosed with COVID-19 and having at least partial smell or taste loss associated with COVID-19 is treated with an intranasally administered a formulation comprising theophylline, which is given once per day, in each naris, for about 30 days, 60 days, or 90 days.
# Administration of the formulation produces an increase in the patient's sonic hedgehog levels or cyclic nucleotide levels within about 30 days, 60 days, or 90 days.
# [3] = test system: patient who had loss of taste and smell from COVID-19; test: Psychophysical smell test, forced-choice three-stimuli stepwise-staircase technique (detection and recognition thresholds for four odors)
# Excerpt: The Patient initially reported their sensory dysfunction as either loss of taste (i.e., flavor) and/or smell function. This subjective response was documented by objective psychophysical measurements of olfactory function administered to each patient by use of a forced-choice, three-stimuli, stepwise-staircase technique in a fixed, controlled design (1, 2). Efficacy of this technique and results of testing were previously documented in a double-blind clinical trial (2). Four odors were used; they were pyridine (dead-fish odor), nitrobenzene (bitter-almond odor), thiophene (petroleum-like odor) and amyl acetate (banana-oil odor). Detection thresholds (DT), and recognition thresholds (RT) values for each odor were determined as previously described (1, 2). Thresholds were converted into bottle units (BU) as previously described (2) and results reported as M of correct responses for each odor in each treatment group. References: (1) Henkin, R. I. Evaluation and treatment of human olfactory dysfunction, in Otolaryngology (English, G. M. Ed.), Lippincott, Philadelphia, 1993, Vol. 2, pp. 1-86. (2) Henkin, R. I., Schecter, P. J., Friedewald, W. T., DeMets, D. L., Raff, M. S. A double blind study of the effects of zinc sulfate on taste and smell dysfunction. Amer. J. Med. Sci. 1976; 272:285-299.
# as §1
# [4] = 3 months after initial administration, 80 μg theophylline intranasal once per day, baseline (Pre) 10, 5 or lower is normal
# [5] = 3 months after initial administration, 80 μg theophylline intranasal once per day, baseline (Pre) 11, 5 or lower is normal
# [6] = 3 months after initial administration, 80 μg theophylline intranasal once per day, baseline (Pre) 12, 5 or lower is normal
structure (smiles),measurement,setting,value
Cn1c(=O)c2[nH]cnc2n(C)c1=O [theophylline],Side effects,[1],No side effects were reported
same,Patient's ability to taste and smell,"[2]; intranasal once per day in each naris for about 30, 60 or 90 days",significant increase
same,Patient's sonic hedgehog levels or cyclic nucleotide levels,"[2]; intranasal once per day in each naris, within about 30 days, 60 days, or 90 days",increase
same,"Detection threshold (DT), thiophene (Thio)",[3]; [4],4 bottle units
same,"Recognition threshold (RT), thiophene (Thio)",[3]; [4],4 bottle units
same,"Detection threshold (DT), amyl acetate (AA)",[3]; [5],4 bottle units
same,"Detection threshold (DT), nitrobenzene (NO2B)",[3]; [5],9 bottle units
same,"Detection threshold (DT), pyridine (Pyr)",[3]; [5],7 bottle units
same,"Recognition threshold (RT), pyridine (Pyr)",[3]; [5],7 bottle units
same,"Recognition threshold (RT), amyl acetate (AA)",[3]; [6],4 bottle units
same,"Recognition threshold (RT), nitrobenzene (NO2B)",[3]; [6],9 bottle units
same,Improvement of recognition threshold (RT) of AA,"[3]; 3 months vs baseline, 1 bottle unit = 10 times lower concentration",8 bottle units
same,Detection threshold and recognition threshold in all four odorant tests,"[3]; 3 months vs baseline, pyridine, nitrobenzene, thiophene, amyl acetate",improved
